Target: human CSNK1A1 (Homo sapiens (Human), UniProt P48729)
Assay: CSNK1A1 Assay 2 (ADP-Glo, 1 μM ATP)
Type: biochemical
Settings: median, Table 2, read-out: CSNK1A1 Assay 2 IC50 [mol/l] (median)
Method in brief: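 GST-tagged full-length human CSNK1A1 from insect cells, preincubated 15 min with compound, then reacted 30 min at 22° C with 1 μM ATP and 30 μM biotinylated peptide substrate in pH 7.5 HEPES buffer. ADP measured by ADP-Glo luminescence; normalised to no-inhibitor (0%) and no-enzyme (100%) controls.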

human CSNK1A1, sequence (P48729 whole entry): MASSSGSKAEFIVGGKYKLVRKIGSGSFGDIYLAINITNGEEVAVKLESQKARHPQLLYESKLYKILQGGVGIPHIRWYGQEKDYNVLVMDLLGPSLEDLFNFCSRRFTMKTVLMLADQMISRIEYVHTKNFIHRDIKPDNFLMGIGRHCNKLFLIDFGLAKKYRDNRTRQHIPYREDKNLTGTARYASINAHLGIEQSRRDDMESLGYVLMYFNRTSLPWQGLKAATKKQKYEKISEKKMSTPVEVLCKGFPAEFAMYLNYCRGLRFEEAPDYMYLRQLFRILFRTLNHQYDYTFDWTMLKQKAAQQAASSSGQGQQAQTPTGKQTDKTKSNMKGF

SMILES | IC50 [nM]
CN1CC(CC(F)(F)F)c2[nH]c(-c3ccnc(NC(=O)Cc4ccc(F)cc4)c3)c(Nc3cscn3)c2C1=O (single isomer, unassigned) [Example 48, 2-(4-fluorophenyl)-N-{4-[(7R or S)-5-methyl-4-oxo-3-(1,3-thiazol-4-ylamino)-7-(2,2,2-trifluoroethyl)-4,5,6,7-tetrahydro-1H-pyrrolo[3,2-c]pyridin-2-yl]pyridin-2-yl}acetamide] | 7.5
CN1CC(CC(F)(F)F)c2[nH]c(-c3ccnc(NC(=O)C(CC(F)F)c4ccc(F)cc4)c3)c(Nc3cscn3)c2C1=O (single isomer, unassigned) [Example 55, (2R or S)-4,4-difluoro-2-(4-fluorophenyl)-N-{4-[(7R or S)-5-methyl-4-oxo-3-[(1,3-thiazol-4-yl)amino]-7-(2,2,2-trifluoroethyl)-4,5,6,7-tetrahydro-1H-pyrrolo[3,2-c]pyridin-2-yl]pyridin-2-yl}butanamide] | 59
Cn1cc(CC(F)(F)F)c2[nH]c(-c3ccnc(NC(=O)C(CC(F)F)c4ccc(F)cc4)c3)c(Nc3ccccc3)c2c1=O (single isomer, unassigned) [Example 36, N-{4-[3-anilino-5-methyl-4-oxo-7-(2,2,2-trifluoroethyl)-4,5-dihydro-1H-pyrrolo[3,2-c]pyridin-2-yl]pyridin-2-yl}-4,4-difluoro-2-(4-fluorophenyl)butanamide] | 6.2
CN1CC(CC2CC2)c2[nH]c(-c3ccnc(NC(=O)Cc4ccc(F)cc4)c3)c(Nc3cscn3)c2C1=O (single isomer, unassigned) [Example 51, N-{4-[(7R or S)-7-(cyclopropylmethyl)-5-methyl-4-oxo-3-(1,3-thiazol-4-ylamino)-4,5,6,7-tetrahydro-1H-pyrrolo[3,2-c]pyridin-2-yl]pyridin-2-yl}-2-(4-fluorophenyl)acetamide] | 20
Cc1cn(C)c(=O)c2c(Nc3ccccc3)c(-c3ccnc(NC(=O)C(C)c4ccc(F)cc4)c3)[nH]c12 (single isomer, unassigned) [Example 40, N-[4-(3-anilino-5,7-dimethyl-4-oxo-4,5-dihydro-1H-pyrrolo[3,2-c]pyridin-2-yl)pyridin-2-yl]-2-(4-fluorophenyl)propanamide] | 15

Reference: patent US20230365554A1, “SUBSTITUTED PYRROLO-PYRIDINONE DERIVATIVES AND THERAPEUTIC USES THEREOF” (The Broad Institute, Inc., priority 2020, published 2023)
